Measurements from patent US20240285808A1, “MOLECULAR PROBES FOR IN VIVO DETECTION OF ALDEHYDES” (The General Hospital Corporation, priority 2021, published 2024).
Where “and” joins values, the source holds several entries; their conditions need not be identical. Equal values may be shown once.

Assays:
[1] = target: bovine serum albumin (BSA) (Bos taurus, UniProt P02769); experiment: Relaxivity measurements with BSA; format: binding; settings: 1.4 T, 37° C., BSA 10 mg/mL
[2] = tested on: liver of CCl4 injured mice; format: in vivo, mouse; settings: for ΔCNR (liver to muscle): 100 μmol/kg i.v., group mean; for ΔCNR of liver, pair-wise comparison: individual mice ID 1-6
Description: CCl4 Liver Fibrosis Model:
Male C57BL/6 mice (Charles River Laboratories, Wilmington, MA) were treated with carbon tetrachloride for 12 weeks (0.1 ml of 20% CCl4 in olive oil the first week, 30% the second week, and 40% from weeks 3-12) by oral gavage, 2-3 times per week. Control mice were fed vehicle (olive oil) only.
A total of 53 C57BL/6 mice were included to study CCl4 induced hepatic fibrosis: • A. CCl4 for 12 weeks (n=20). Each mouse was imaged with probe 1 and then imaged again 24 hours later with probe 2. Probe 1 and Probe 2 were randomly chosen from GdDOTA, GdCHyd, Mn-12, Gd-9 and Gd-10. • B. Vehicle treated control (n=20). Each mouse was imaged with probe 1 and then imaged again 24 hours later with probe 2. Probe 1 and Probe 2 were randomly chosen from GdDOTA, Mn-12, GdCHyd, Gd-9, Gd-10. • C. CCl4 for 12 weeks (n=3, another 3 pair-wise comparison have been done in group A). Each mouse was imaged with probe 1 and then imaged again 24 hours later with probe 2. […] Each mouse was imaged with probe 1 and then imaged again 24 hours later with probe 2. Probe 1 and Probe 2 were randomly choosing from Gd-9 and Gd-10. • E. CCl4 for 12 weeks (n=3). Each mouse was imaged with Gd-9. After 24 hours, the same mouse was first injected with 1000 μmol/kg of Yb-9 and then injected with 100 μmol/kg of Gd-9 15 min after the Yb-9 injection.
Animals were anesthetized with isoflurane (1-2%) and placed in a specially designed cradle with body temperature maintained at 37° C. The inhaled isoflurane level was adjusted to maintain a respiration rate of 60±5 breaths per minute. The tail vein was cannulated for intravenous (i.v.) delivery of the contrast agent while the animal was positioned in the scanner. Imaging was performed at 4.7 T using a small bore animal scanner with a custom-built volume coil. Mice were imaged with a dose of 100 μmol/kg from 30 mM stock solution of Gd or Mn complex.
For mice liver imaging, a series of baseline images (3D T1 weighted fast low angle shot magnetic resonance imaging (FLASH)) were first acquired (repetition time/echo time=15/2 ms; flip angle, 30°; field of view, 48×30 mm^2; matrix size, […]; slice thickness, 0.25 mm; acquisition time, 3 minutes 20 seconds), then a bolus of Gd or Mn complex was administered i.v. and imaging performed for a period of 45 min p.i. with the repetition acquisition of 3D T1 weighted FLASH sequences. Following the imaging session, animals were sacrificed (75 min p.i.) and liver tissue was subjected to histopathologic analysis.
For liver imaging analysis, a region of interest (ROI) was manually traced encompassing the liver parenchyma while avoiding major blood vessels. A second ROI was placed on the dorsal muscle visible in the same image slice to quantify the signal intensity in the muscle for comparison. Seven ROIs were placed in the field of view without any tissue (air) to measure the variation in background signal. More than 20 axial slices per mouse across the entire liver were analyzed in this fashion. […] Contrast to noise ratio (CNR) was calculated by measuring the difference in signal intensity (SI) between liver and muscle and normalizing to the standard deviation of the signal in the air, eq 21. ΔCNR was calculated by subtracting CNR measured prior to probe injection (CNRPre) from CNR measured after injection (CNRPost), eq 22. […]

[3] = Relaxivity measurements in PBS; format: physicochemical; settings: 1.4 T, 37° C.
[4] = target: T1, BSA-ALD (oxidized bovine serum albumin containing allysine aldehyde groups) (Bos taurus, UniProt P02769); experiment: Relaxivity measurements with BSA-Ald; format: binding; settings: for r1, +BSA-Ald / r1, Bound to BSA-Ald: 1.4 T; for r1, +BSA-Ald / r1, Bound to BSA-Ald / increase of r1 in BSA^Ald compared to PBS value: 37° C.; for r1, +BSA-Ald: BSA-Ald 10 mg/mL; for r1, Bound to BSA-Ald: protein-bound species after NaBH3CN and ultrafiltration; for increase of r1 in BSA^Ald compared to PBS value: 1.41 T
T1 construct: made in house; host or cells: no expression host: BSA oxidised chemically with sodium ascorbate, ferric chloride and H2O2, then desalted on PD-10

[5] = CCl4 injured mice, 45 min post injection

T1 sequence (P02769 25-607): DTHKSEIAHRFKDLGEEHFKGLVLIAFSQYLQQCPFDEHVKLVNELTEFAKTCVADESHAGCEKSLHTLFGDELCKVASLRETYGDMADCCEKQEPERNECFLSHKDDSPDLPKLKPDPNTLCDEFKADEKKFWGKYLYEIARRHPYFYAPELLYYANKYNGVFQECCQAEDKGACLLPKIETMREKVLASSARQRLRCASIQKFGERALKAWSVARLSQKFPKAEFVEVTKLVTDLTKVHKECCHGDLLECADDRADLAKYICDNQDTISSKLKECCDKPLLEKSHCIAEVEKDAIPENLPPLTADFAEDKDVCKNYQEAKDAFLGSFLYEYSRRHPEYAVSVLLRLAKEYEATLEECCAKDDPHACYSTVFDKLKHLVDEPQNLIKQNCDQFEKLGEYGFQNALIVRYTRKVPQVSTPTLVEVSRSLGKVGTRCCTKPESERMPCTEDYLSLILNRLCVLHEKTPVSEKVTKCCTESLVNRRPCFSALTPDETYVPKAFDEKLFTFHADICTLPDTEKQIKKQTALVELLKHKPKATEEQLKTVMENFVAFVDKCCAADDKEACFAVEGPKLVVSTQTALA
Sequence of bovine serum albumin (BSA) (P02769 25-607): as above

NN1CCN(C(=O)CCC(C(=O)[O-])N2CCN(CC(=O)[O-])CCN(CC(=O)[O-])CCN(C(CCC(=O)N3CCN(N)CC3)C(=O)[O-])CC2)CC1.[Gd+3] (stereo not drawn) [Gd-9, cis-1,4-Gd-(CHyd)2]
r1, +BSA [1]: 6.6 mM⁻¹ s⁻¹ and 6.5 mM⁻¹ s⁻¹
fold higher ΔCNR compared to Gd-CHyd (monobinder) ([2]; CCl4 injured mice, 45 min p.i.): 10 fold
ΔCNR (liver to muscle) [2, 5]: 2.2±0.8 and 2.2 ± 0.9
ΔCNR of liver, With blocking ([2]; CCl4 injured mice, 45 min post injection, blocking dose of Yb-9 (1000 μmol/kg) 15 min before, individual mice ID 1-3): 0.1 (2×) and 0.3
ΔCNR of liver, Without blocking ([2]; CCl4 injured mice, 45 min post injection, individual mice ID 1-3): 3.6 and 2.7 and 3.0
ΔCNR of liver, pair-wise comparison [2, 5]: 1.9 (2×) and 3.2 and 1.3 and 2.1 and 1.5
r1, PBS [3]: 6.6 mM⁻¹ s⁻¹
fold higher relaxivity than Gd-CHyd [4]: 2.3 fold
higher protein-bound relaxivity than monobinder Gd-CHyd [4]: 50%
r1, +BSA-Ald [4]: 11.7 mM⁻¹ s⁻¹ and 11.2 mM⁻¹ s⁻¹
r1, Bound to BSA-Ald [4]: 17.7 mM⁻¹ s⁻¹
increase of r1 in BSA^Ald compared to PBS value [4]: 77%

NN1CCN(C(=O)CCC(C(=O)[O-])N2CCN(CC(=O)[O-])CCN(C(CCC(=O)N3CCN(N)CC3)C(=O)[O-])CCN(CC(=O)[O-])CC2)CC1.[Gd+3] (stereo not drawn) [Gd-10, trans-1,7-Gd-(CHyd)2]
r1, +BSA [1]: 6.6 mM⁻¹ s⁻¹
ΔCNR (liver to muscle) [2, 5]: 1.3±0.4 and 1.5 ± 0.9
ΔCNR of liver, pair-wise comparison [2, 5]: 1.3 and 2.3 and 1.2 and 0.9 and 1.4 and 1.0
r1, PBS [3]: 6.6 mM⁻¹ s⁻¹
r1, +BSA-Ald [4]: 9.0 mM⁻¹ s⁻¹
r1, Bound to BSA-Ald [4]: 18.7 mM⁻¹ s⁻¹
increase of r1 in BSA^Ald compared to PBS value [4]: 36%

NNC(CCC(=O)NCCCN1CCN(CC(=O)[O-])Cc2cccc(n2)CN(CC(=O)[O-])CC1)C(=O)O.[Mn+2] (stereo not drawn) [Mn-15]
r1, +BSA [1]: 3.6 mM⁻¹ s⁻¹
fold higher DCNR in CCl4 treated vs vehicle treated mice ([2]; 20 minutes post injection): 3 fold
ΔCNR (liver to muscle) [2, 5]: 1.2 ± 0.2
r1, PBS [3]: 3.1 mM⁻¹ s⁻¹
turn-on in relaxivity upon binding to allysine (BSA-Ald bound vs unbound) [4]: 4 fold and ~3 fold
turn on in relaxivity ([4]; 1.4T): 270%
r1, +BSA-Ald [4]: 5.9 mM⁻¹ s⁻¹
r1, Bound to BSA-Ald [4]: 12.7 mM⁻¹ s⁻¹
increase of r1 in BSA^Ald compared to PBS value [4]: 90%

NOC(CCC(=O)NCCCN1CCN(CC(=O)[O-])Cc2cccc(n2)CN(CC(=O)[O-])CC1)C(=O)O.[Mn+2] (stereo not drawn) [Mn-16]
r1, +BSA [1]: 3.4 mM⁻¹ s⁻¹
r1, PBS [3]: 3.1 mM⁻¹ s⁻¹
turn-on in relaxivity upon binding to allysine (BSA-Ald bound vs unbound) [4]: 4 fold
r1, +BSA-Ald [4]: 7.7 mM⁻¹ s⁻¹
r1, Bound to BSA-Ald [4]: 12.7 mM⁻¹ s⁻¹

NNCC(=O)NCCCN1CCN(CC(=O)[O-])Cc2cccc(n2)CN(CC(=O)[O-])CC1.[Mn+2] [Mn-17]
r1, +BSA [1]: 3.5 mM⁻¹ s⁻¹
r1, PBS [3]: 3.0 mM⁻¹ s⁻¹
turn-on in relaxivity upon binding to allysine (BSA-Ald bound vs unbound) [4]: 4 fold and ~3 fold
r1, +BSA-Ald [4]: 5.6 mM⁻¹ s⁻¹
r1, Bound to BSA-Ald [4]: 11.4 mM⁻¹ s⁻¹
increase of r1 in BSA^Ald compared to PBS value [4]: 90%

CN(C)C(CCC(=O)NCCCN1CCN(CC(=O)[O-])Cc2cccc(n2)CN(CC(=O)[O-])CC1)C(=O)O.[Mn+2] (stereo not drawn) [Mn-18]
r1, +BSA [1]: 3.5 mM⁻¹ s⁻¹
r1, PBS [3]: 3.1 mM⁻¹ s⁻¹
r1, +BSA-Ald [4]: 3.6 mM⁻¹ s⁻¹
